Source: patent US8586538B2, “Method of treating a patient suffering from a bleeding disorder comprising administering an antibody against the A3-C1 of FVIII” (Stichting Sanquin Bloedvoorziening, priority 2002, dated 2013)

Tested on: LRP cluster II
Test: SPR binding of LRP cluster II to immobilized light chains (FVIII, FVa, FVIII/FV chimera)
Details: LRP cluster II 100 nM; immobilized light chain
Procedure: FIG. 3. Binding of LRP cluster II to immobilized FVa light chain. […] Response is indicated as Resonance Units (RU) and is corrected for nonspecific binding, which was less than 5% relative to coated channels.
FIG. 6. Binding of LRP cluster II to the FVIII/FV^1811-1818 light chain chimera. ScFv EL14 at a CM5 sensor chip (67 fmol/mm^2) was incubated with either the recombinant wild-type FVIII light chain or the recombinant FVIII/FV^1811-1818 chimera till a density of 20 fmol/mm^2, in 150 mM NaCl, 50 mM Tris (pH 7.4). […] Bound LRP cluster II is expressed as the amount associated after 2 min.
The kinetics of protein interactions was determined by surface plasmon resonance (SPR) analysis, employing a BIAcore™2000 biosensor system (Biacore AS, Uppsala, Sweden). […] Association of analyte was assessed in 150 mM NaCl, 2 mM CaCl2, 0.005% (v/v) Tween® 20, and 20 mM Hepes (pH 7.4) for 2 min, at a flow rate of 20 μl/min at 25° C. […] The association (kon) and dissociation (koff) rate constants were determined by using the BIAevaluation software 3.1 (Biacore AB, Uppsala, Sweden). […] Equilibrium dissociation constants (kd) were calculated from the ratio koff/kon. […]

LRP cluster II, sequence (Q07954 803-1182 limits assumed): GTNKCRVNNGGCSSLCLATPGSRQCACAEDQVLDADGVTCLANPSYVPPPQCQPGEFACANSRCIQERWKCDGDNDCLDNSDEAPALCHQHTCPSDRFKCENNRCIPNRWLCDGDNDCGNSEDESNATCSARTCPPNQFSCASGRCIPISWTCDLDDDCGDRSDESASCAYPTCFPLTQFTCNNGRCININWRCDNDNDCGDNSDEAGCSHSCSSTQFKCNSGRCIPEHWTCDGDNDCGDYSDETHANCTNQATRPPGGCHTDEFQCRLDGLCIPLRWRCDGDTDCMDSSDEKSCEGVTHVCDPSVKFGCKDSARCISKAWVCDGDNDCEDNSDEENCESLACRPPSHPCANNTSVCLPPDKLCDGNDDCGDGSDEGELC

FVa light chain: light chain of thrombin-activated human Factor V purified from plasma
Binding to LRP cluster II: did not interact
